Reference: patent US11471462B2, “Compositions and methods for detecting and treating diabetes” (THE BROAD INSTITUTE, INC., priority 2016, dated 2022)

Tests used:
SLC16A11 [1] = assay: CRISPR (SAM) transactivation assay, SLC16A11 expression in 293T cells; format: cell-based, human; conditions: Cas9-based transactivators (SAM) targeted near variant
Text: These experiments are based upon Cas9 based transactivators (SAM or synergistic activation mediators) as described in Konermann et al (Nature 517: 583-588, 2015). Similar experiments based on other types of transactivators that are more finely tuned to distal activation such as those described in Hilton et al. (Nature 33:510-518, 2015) could also be envisioned. Cas9 was used to target transactivators to sites near individual variants in the credible set. Their ability to activate SLC16A11 gene expression was assessed (Table 10).
Cell lines derived from HEK293-T cells were established by lentivirus infection resulting in stable integration of two components of the SAM system namely dCas9-VP64 and MS2-p65-HSF1. The resulting stable cell lines were then plated into 96 well plates and left overnight. The next day, cells were transfected with the guide RNAs (pHKO23), the final component of the SAM system. After an additional 48 hours, cells were harvested for gene expression analyses.

SLC16A11 [2] = assay: Compound treatment, SLC16A11 expression by ddPCR in SNU761 cells; format: cell-based, human; conditions: SNU761 cells; same doses and treatment times as in the LINCS dataset
Experimental: A small number of the compounds that made the strongest positive connections to the SLC16A11 gene expression signature were selected and tested. […] Methotrexate was also included, which had been annotated as a dihydrofolate reductase inhibitor. SNU761 cells (derived from a human hepatocellular carcinoma) and NCIH716 cells (derived from a human cecum adenocarcinoma), which both express SLC16A11, were treated with the compounds. The same compound concentrations and treatment times were used as in the LINCS dataset experiments. […] For normalization, a different housekeeper gene, HPRT1, was used and obtained similar results with the mTOR inhibitors (FIGS. 14A and 14B).
From the total list of compounds, 59 readily available compounds were selected from the 79 compounds with the largest connectivity scores to the query signature and 20 middle compounds with connectivity scores centered on 0 (FIG. 15A) and then treated SNU761 cells at the same doses and treatment times as were used in the LINCS dataset. It was expected that the top compounds would be enriched for compounds that increased SLC16A11 expression. […] The results were aligned with the expectations (FIG. 15B). Hierarchical clustering of the SLC16 expression profiles generated by the compound treatments are shown by the heat map in FIG. 15C.
SNU761 (human hepatocellular carcinoma) and NCIH716 (human cecum adenocarcinoma) were cultured in RPMI Medium 1640 supplemented with 10% Fetal Bovine Serum (FBS), 100 μg/ml Streptomycin and 100 U/ml Penicillin. Cells were grown in a humidified CO2 incubator, at 37° C.
For the unbiased approach taken to investigate the compounds that connected to the SLC16A11 gene expression signature, compounds were obtained from compound management at the Broad Institute.
SNU761 and NCIH716 cells were plated into 96 well plates at a density of 20,000 cells per well. Hepatocytes were plated into collagen coated 96 well plates (Corning, 354408) at a density of 50,000 cells per well. After 24 hours, cells were treated with compounds at a final concentration of 10 μM or vehicle control for the appropriate amount of time.
At the time of collection, cells in 96 well plates were lysed by directly adding 50 μL of RLT buffer (Qiagen). 75 μL of AMPure XP beads, diluted by a factor of 5 in polyethylene glycol, were then added to bind nucleic acids. One wash with polyethylene glycol was then performed. DNase treatment (Qiagen) was carried out according to the manufacturer's protocol in a final volume of 50 μL. 100 μL of polyethylene glycol was added after the DNase treatment to crowd nucleic acids back onto the beads. Two washes with 80% ethanol were performed and residual ethanol was removed. RNA was then eluted in water.
RNA was DNase treated and converted into cDNA using the High-Capacity RNA-to-cDNA kit (Thermo Fisher Scientific). The following FAM-labeled TaqMan Real-Time PCR assays (Thermo Fisher Scientific) were used to quantify gene expression: SLC16A11 (Hs00601062_g1), SLC16A13 (Hs00416832_m1), SLC16A1 (Hs01560299_m1). The VIC-labeled TaqMan Real-Time assays TBP (Hs00427620_m1) or HPRT1 (Hs02800695_m1) were used for normalization. Droplets were generated and analyzed using a QX200 Droplet Generator and Reader system (BioRad). Data was extracted using QuantaSoft (BioRad) and analyzed using Microsoft Excel.

Compound | Increases SLC16A11 transcript levels in transactivator assay (SLC16A11 [1]) | avg_fc (SLC16A11 expression, compound treated vs DMSO treated cells) (SLC16A11 [2])
rs58223766 (guide 1 TCAGGAGTTCGAGACCATCC; guide 2 GATCCACCCCCCCCCCCCCT; listed as DNA, chemistry not given here; listed as Homo sapiens) | FALSE | 
TGGCAGTCCCCGCGTCACGT (chemistry not given here) | TRUE | 
rs312457 (guide 1 TGATGAAACCTGGCCGGGCA; guide 2 GTGAGCCACCGTGCCCGGCC; listed as DNA, chemistry not given here; listed as Homo sapiens) | FALSE | 
rs73239895 (guide 1 ACTCCTGCCGGAGGTTCTCG; guide 2 AGGCCCCGAGAACCTCCGGC; listed as DNA, chemistry not given here; listed as Homo sapiens) | FALSE | 
rs186568031 (guide 1 GATTTTCACTCTTGTTGCCC; guide 2 TTCACTCTTGTTGCCCAGGC; listed as DNA, chemistry not given here; listed as Homo sapiens) | FALSE | 
GCGGGATTTAGGCATTGTTG (chemistry not given here) | TRUE | 
rs193399 (guide 1 TAGAACCAGCTTCTAGGTTC; guide 2 TCCTTCCTGAACCTAGAAGC; listed as DNA, chemistry not given here; listed as Homo sapiens) | FALSE | 
rs4630597 (guide 1 GGTGCCTCAGATACCTGGTT; guide 2 AACCAGGTATCTGAGGCACC; listed as DNA, chemistry not given here; listed as Homo sapiens) | FALSE | 
rs77552976 (guide 1 GAAAGGGCTGCCGTGCTGTT; guide 2 CCTGGCTGGACCTAACAGCA; listed as DNA, chemistry not given here; listed as Homo sapiens) | FALSE | 
GGCTGCGTGTTAGTGGCTTC (chemistry not given here) | TRUE | 
ACGGAAACTGGCGCGCTCCA (chemistry not given here) | TRUE | 
TGGCTCTGGGTGCTGAAACG (chemistry not given here) | TRUE | 
TCACGCGCGGCTTGCCGGAT (chemistry not given here) | TRUE | 
rs191133 (guide 1 TGAAAGTAAGTCAATCATGG; guide 2 ATGATTGACTTACTTTCATC; listed as DNA, chemistry not given here; listed as Homo sapiens) | FALSE | 
TGTTCTCAGGAACGTTGCCG (chemistry not given here) | TRUE | 
rs1698227 (guide 1 TGGTGCTAAGGGGCACACAC; guide 2 TGCTCATTTTCCTCTGCACT; listed as DNA, chemistry not given here; listed as Homo sapiens) | FALSE | 
rs78972129 (guide 1 GATGCTATGGTTGGCCACGC; guide 2 AGTACAGTACACAGCCTGCG; listed as DNA, chemistry not given here; listed as Homo sapiens) | FALSE | 
GTACATAATTCAATCCCCGT (chemistry not given here) | TRUE | 
rs17203120 (guide 1 CTTATTTGATTTTATCTCAA; guide 2 TTATTTGATTTTATCTCAAA; listed as DNA, chemistry not given here; listed as Homo sapiens) | FALSE | 
rs74577409 (guide 1 ACCTGCCGCCTGCTGCGCGC; guide 2 CCCTGCGCGCAGCAGGCGGC; listed as DNA, chemistry not given here; listed as Homo sapiens) | TRUE | 
CTATTTCCACGCGTTGGCGG (chemistry not given here) | TRUE | 
rs75075014 (guide 1 GGAAGTGGAGGAGAGTGTCC; guide 2 GGAGTCATGCCTGGAAGTGG; listed as DNA, chemistry not given here; listed as Homo sapiens) | FALSE | 
rs2292351 (guide 1 AGCCTCTGGCTGCTCGCCCG; guide 2 CACCCCGGGCGAGCAGCCAG; listed as DNA, chemistry not given here; listed as Homo sapiens) | TRUE | 
rs145952323 (guide 1 CAAAAATTAGCCGGGTGTGT; guide 2 CAGGCACACGCCAACACACC; listed as DNA, chemistry not given here; listed as Homo sapiens) | FALSE | 
Cc1cc([C@@H](C)Nc2ccccc2C(=O)O)c2nc(N3CCOCC3)cc(=O)n2c1 [AZD-6482] |  | 2.176
rs17203148 (guide 1 TCTGCCAATCTTGGCTCTGT; guide 2 GAAACCTACAGAGCCAAGAT; listed as DNA, chemistry not given here; listed as Homo sapiens) | FALSE | 
TTACAGGCTTGCACCGCGCC (chemistry not given here) | TRUE | 
O=C1N(c2ccccc2)c2ccccc2C1(Cc1ccncc1)Cc1ccncc1 [linopirdine] |  | 0.8629
CC1(C)C[C@@H]1C(=O)N/C(=C\CCCCSC[C@H](N)C(=O)O)C(=O)O [cilastatin] |  | 0.9371
